{"source": "paper PMC9312091", "about": "“Mining Amphibian and Insect Transcriptomes for Antimicrobial Peptide Sequences with rAMPage” (Antibiotics, 2022)", "tested_on": "E. coli and/or S. aureus", "assay": "Antimicrobial susceptibility testing (MIC and MBC), summary statements", "type": "cell-based", "details": "AST in vitro against E. coli ATCC 25922 and S. aureus ATCC 29213", "method": "A total of 21 of the 1137 putative AMPs (Table S2) were synthesized (Genscript Biotech, Piscataway, NJ, USA) and tested for their antimicrobial activity against Escherichia coli ATCC 25922 and Staphylococcus aureus ATCC 29213 in a minimum of three independent experiments (see Figure S5 for a full set of experimental results). In these antimicrobial susceptibility tests, AMP activity was assessed using two metrics: minimum inhibitory and bactericidal concentrations (MIC and MBC, respectively). Lower MIC and MBC values are desirable as they indicate that lower AMP concentrations are sufficient for inhibitory or bactericidal activity, respectively. AMP toxicity was measured by HC50 hemolytic concentration values—the concentration required to lyse ≥ 50% of porcine red blood cells. […]\nTwenty-one putative AMP sequences identified using the rAMPage pipeline were validated through a minimum of three AST experiments performed independently on separate days. In these tests, the AMP activity was assessed using two metrics: minimum inhibitory concentration and minimum bactericidal concentration (MIC and MBC, respectively). MIC and MBC values were determined using procedures outlined by the Clinical and Laboratory Standards Institute (CLSI), with the recommended adaptations for the testing of cationic AMPs described previously. […]", "note": "Peptide text beside a SMILES is read from it.", "data": [{"compound": "CC(C)C[C@H](NC(=O)[C@H](CCCCN)NC(=O)[C@H](CCC(=O)O)NC(=O)[C@H](CC(C)C)NC(=O)[C@H](CCCNC(=N)N)NC(=O)[C@@H](NC(=O)[C@H](Cc1ccc(O)cc1)NC(=O)[C@H](CC(N)=O)NC(=O)[C@H](CCCCN)NC(=O)[C@H](CCCCN)NC(=O)[C@H](CC(N)=O)NC(=O)[C@@H](NC(=O)[C@H](CC(C)C)NC(=O)[C@H](CCCCN)NC(=O)[C@H](CCCCN)NC(=O)[C@@H](NC(=O)[C@H](CO)NC(=O)[C@H](CCCCN)NC(=O)[C@H](CO)NC(=O)[C@H](CC(C)C)NC(=O)[C@H](Cc1c[nH]c2ccccc12)NC(=O)[C@@H](N)CO)C(C)C)C(C)C)[C@@H](C)O)C(=O)N[C@@H](C)C(=O)N[C@@H](CCCCN)C(=O)N[C@@H](CCCCN)C(=O)N[C@@H](CCCCN)C(=O)N[C@@H](CC(C)C)C(=O)N[C@@H](Cc1ccccc1)C(=O)N[C@@H](CC(N)=O)C(=O)N[C@@H](CCC(=O)O)C(=O)O", "note": "[TeRu4] (H-SWLSKSVKKLVNKKNYTRLEKLAKKKLFNE-OH; N-terminus and C-terminus assumed)", "values": [{"measurement": "antimicrobial activity (in words)", "value": "active only against E. coli"}]}]}
